# Data published in ChEMBL document CHEMBL1136081, “Structure-activity relationships of novel anti-malarial agents. Part 7: N-(3-benzoyl-4-tolylacetylaminophenyl)-3-(5-aryl-2-furyl)acrylic acid amides with polar moieties” (Bioorg Med Chem Lett, 2003).
# Test system: Plasmodium falciparum
# Assay: Inhibition against Plasmodium falciparum Dd2 in erythrocytes in semiautomated micro dilution assay
# Assay type: functional, organism-based
row,IC50 [nM],Compound
1,280,Cc1ccc(CC(=O)Nc2ccc(NC(=O)/C=C/c3ccc(-c4ccc(NC=O)cc4)o3)cc2C(=O)c2ccccc2)cc1
2,260,Cc1ccc(CC(=O)Nc2ccc(NC(=O)/C=C/c3ccc(-c4ccc(N)cc4)o3)cc2C(=O)c2ccccc2)cc1
3,560,Cc1ccc(CC(=O)Nc2ccc(NC(=O)/C=C/c3ccc(-c4ccc(C(N)=O)cc4)o3)cc2C(=O)c2ccccc2)cc1
4,170,COC(=O)c1ccc(-c2ccc(/C=C/C(=O)Nc3ccc(NC(=O)Cc4ccc(C)cc4)c(C(=O)c4ccccc4)c3)o2)cc1
5,200,Cc1ccc(CC(=O)Nc2ccc(NC(=O)/C=C/c3ccc(-c4ccc(S(N)(=O)=O)cc4)o3)cc2C(=O)c2ccccc2)cc1
6,67,CC(=O)c1ccc(-c2ccc(/C=C/C(=O)Nc3ccc(NC(=O)Cc4ccc(C)cc4)c(C(=O)c4ccccc4)c3)o2)cc1
7,77,Cc1ccc(CC(=O)Nc2ccc(NC(=O)/C=C/c3ccc(-c4ccc(C(F)(F)F)cc4)o3)cc2C(=O)c2ccccc2)cc1
8,60,CCS(=O)(=O)c1ccc(-c2ccc(/C=C/C(=O)Nc3ccc(NC(=O)Cc4ccc(C)cc4)c(C(=O)c4ccccc4)c3)o2)cc1
9,220,Cc1ccc(CC(=O)Nc2ccc(NC(=O)/C=C/c3ccc(-c4ccc(C#N)cc4)o3)cc2C(=O)c2ccccc2)cc1
10,560,CC(=O)Nc1ccc(-c2ccc(/C=C/C(=O)Nc3ccc(NC(=O)Cc4ccc(C)cc4)c(C(=O)c4ccccc4)c3)o2)cc1
11,37,Cc1ccc(CC(=O)Nc2ccc(NC(=O)/C=C/c3ccc(-c4ccc(S(C)(=O)=O)cc4)o3)cc2C(=O)c2ccccc2)cc1
